# Measured values taken from patent US11135252B2, “Probiotic therapies for developmental disorders and other neurological disorders” (Baylor College of Medicine, priority 2016, dated 2021).
# Assays:
# [1] = test system: oxytocin immunoreactivity in the PVN; experiment: Oxytocin immunofluorescence in the PVN of MHFD offspring; assay type: in vivo, mice; settings: for oxytocin-positive cell number in the PVN: relative to heat-killed L. reuteri / control treatment
# Procedure: Lactobacillus reuteri MM4-1A (ATCC-PTA-6475) and Lactobacillus johnsonii (ATCC 33200) were cultured anaerobically in MRS broth in a 90% N2, 5% CO2, 5% H2 environment. L. reuteri was heat-killed by keeping the bacteria at 80° C. for 20 minutes (Wang et al., 2010). Bacterial viability was assessed by plating and the efficacy of the heat-kill procedure was confirmed by the absence of colony growth following plating. Cultures were centrifuged, washed, and resuspended in anaerobic solution (PBS) and frozen at −80° C. until use. PBS, live or heat-killed L. reuteri were added to the drinking water, which was changed daily to minimize dosage variability. Whereas the experimental group received live bacteria, one control group received identically prepared cultures of heat-killed bacteria. A second group of control mice received water treated with PBS alone. Live and heat-killed L. reuteri were supplied at a dosage of 1×10^8 organisms/mouse/day continuously in drinking water. Mice consumed the treated water ad libitum over the treatment period. The treated drinking water for each group was replaced daily two hours prior to the onset of the dark cycle to minimize variation in microbial exposure. Behavioral assays were initiated after 4-weeks of L. reuteri or control treatment. The protocol of the L. johnsonii preparation and administration matched the L. reuteri protocol. Fecal samples for sequencing and tissue used in the immunofluorescence studies were collected at the end of the treatment.
# Mice were deeply anesthetized by inhalation of isoflurane and perfused transcardially with 10 ml 0.9% phosphate-buffered saline followed by 30 ml 4% paraformaldehyde in 0.1M phosphate buffer (PFA). […] Fluorescence intensity was measured in ImageJ (NIH) by selecting regions of interest (Oxytocin- and NeuN-positive hypothalamic cell bodies). Hypothalamic oxytocin-expressing neuronal population and NeuN+ cell number was assessed in ImageJ using the following operational sequence: (1) open image file, (2) subtract background, (3) adjust threshold, (4) convert to mask, (5) watershed, (6) analyze particles. […]
# MRD offspring = experiment: Three-chamber social test in MRD offspring; assay type: in vivo, mice; settings: in drinking water
# Procedure: Crawley's three-chamber test for sociability and preference for social novelty was performed as described (Silverman et al., 2010). In brief, the mouse first experienced a 10-minute period of habituation during which it was allowed to freely explore a 60×40×23 cm Plexiglass arena divided into three equally sized, interconnected chambers (Left, Center, Right). Sociability was measured during a second ten-minute period in which the subject could interact either with an empty wire cup (Empty) or a wire cup containing an age and sex-matched stranger conspecific (Mouse 1). Time spent interacting (sniffing, crawling upon) with either the empty cup or the stranger mouse contained in the other cup as well as time spent in each chamber was recorded using the AnyMaze software, by independent observers. Empty cup placement in the Left or Right chamber during the Sociability period was counterbalanced between trials. Finally, preference for social novelty was assayed by introducing a second stranger mouse (Mouse 2) into the previously the empty wire cup. Time spent in each chamber as well as time spent interacting with either Mouse 1 or Mouse 2 was recorded using the automated AnyMaze software by independent observers. Lactobacillus reuteri MM4-1A (ATCC-PTA-6475) and Lactobacillus johnsonii (ATCC 33200) were cultured anaerobically in MRS broth in a 90% N2, 5% CO2, 5% H2 environment. L. reuteri was heat-killed by keeping the bacteria at 80° C. for 20 minutes (Wang et al., 2010). Bacterial viability was assessed by plating and the efficacy of the heat-kill procedure was confirmed by the absence of colony growth following plating. Cultures were centrifuged, washed, and resuspended in anaerobic solution (PBS) and frozen at −80° C. until use. PBS, live or heat-killed L. reuteri were added to the drinking water, which was changed daily to minimize dosage variability. Whereas the experimental group received live bacteria, one control group received identically prepared cultures of heat-killed bacteria. A second group of control mice received water treated with PBS alone. […]
# Cntnap2-deficient mice = settings: mice lacking Cntnap2; oxytocin (Penagarikano et al., 2015; 2011); cited from earlier work
molecule,measurement,setting,value
Lactobacillus reuteri MM4-1A (ATCC-PTA-6475) [L. reuteri],oxytocin immunofluorescence intensity in the PVN,[1]; relative to heat-killed L. reuteri,significantly increased
same,oxytocin-positive cell number in the PVN,[1],higher than in control-treated MHFD offspring
same,oxytocin-positive cell number in the PVN,[1]; listed as live L. reuteri,significantly increased
same,"sociability (chamber containing a mouse, FIG. 16A)",MRD offspring,preferred the chamber containing a mouse
same,social behavior,MRD offspring,did not change the social behavior
same,"social novelty (chamber containing Mouse 2, FIG. 16B)",MRD offspring,preferred
CC[C@H](C)[C@@H]1NC(=O)[C@H](Cc2ccc(O)cc2)NC(=O)[C@@H](N)CSSC[C@@H](C(=O)N2CCC[C@H]2C(=O)N[C@@H](CC(C)C)C(=O)NCC(N)=O)NC(=O)[C@H](CC(N)=O)NC(=O)[C@H](CCC(N)=O)NC1=O [oxytocin],social behavioral abnormalities,Cntnap2-deficient mice,rescues the social behavioral abnormalities
